{
  "source": "paper PMC3968228",
  "about": "(Cancer chemotherapy and pharmacology, 2014)",
  "key": {"[1]": {"conditions": "three new patients on ritonavir-based cART, docetaxel 70 to 100 mg/m^2; cited from earlier work"}, "[2]": {"conditions": "for elimination pattern of docetaxel concentration-time profile: docetaxel 20 mg/kg i.v., male FVB mice"}, "[3]": {"conditions": "with ritonavir; cited from earlier work"}, "[4]": {"conditions": "male, FVB, mouse, plasma, iv, 20 mg/kg"}},
  "data": [
    {"molecule": "CC(=O)O[C@@]12CO[C@@H]1C[C@H](O)[C@@]1(C)C(=O)[C@H](O)C3=C(C)[C@@H](OC(=O)[C@H](O)[C@@H](NC(=O)OC(C)(C)C)c4ccccc4)C[C@@](O)([C@@H](OC(=O)c4ccccc4)[C@H]21)C3(C)C", "note": "[Docetaxel]", "values": [
      {"measurement": "toxicity", "setting": "[1]", "value": "severe toxicities"},
      {"measurement": "elimination pattern of docetaxel concentration-time profile", "setting": "[2]; plasma", "value": "triphasic"},
      {"measurement": "AUC(0-inf)", "setting": "[2]; [4]", "value": 10300, "unit": "ng·h/mL"},
      {"measurement": "Cmax", "setting": "[2]; [4]", "value": "18100 ± 2200", "unit": "ng/mL"},
      {"measurement": "clearance", "setting": "[2]; [4]", "value": 32.2, "unit": "mL/min/kg"},
      {"measurement": "concentration at 24 hr", "setting": "[2]; [4]", "value": "9 ± 0.7", "unit": "ng/mL"}
    ]},
    {"molecule": "O=C1Nc2ccc(Cl)cc2[C@@](C#CC2CC2)(C(F)(F)F)O1", "note": "[efavirenz, Efavirenz]", "values": [
      {"measurement": "effect on docetaxel exposure (AUC)", "setting": "[2]; CYP3A4 inducers p.o. x4d before docetaxel 20 mg/kg i.v.", "value": "did not have a significant effect"},
      {"measurement": "elimination pattern of docetaxel concentration-time profile", "setting": "[2]; plasma", "value": "triphasic"}
    ]},
    {"molecule": "CC(=O)N1CCN(c2ccc(OCC3COC(Cn4ccnc4)(c4ccc(Cl)cc4Cl)O3)cc2)CC1", "note": "(stereo not shown) [ketoconazole, Ketoconazole]", "values": [
      {"measurement": "elimination pattern of docetaxel concentration-time profile", "setting": "[2]; plasma", "value": "biphasic"}
    ]},
    {"molecule": "CC(C)c1nc(CN(C)C(=O)N[C@H](C(=O)N[C@@H](Cc2ccccc2)C[C@H](O)[C@H](Cc2ccccc2)NC(=O)OCc2cncs2)C(C)C)cs1", "note": "[ritonavir, Ritonavir]", "values": [
      {"measurement": "oral bioavailability of docetaxel", "setting": "[3]", "value": "130-160 % of control"}
    ]}
  ]
}
